The values below come from ChEMBL document CHEMBL3507680, “University of Dundee, Gates Library screen for HepG2 cell viability”.

This series can be described thus: Human HepG2 cell viability assay in 384 well format. In kind it is toxicity, cell-based. The arrangement: dose 125 nL, time 70.5 hour; cytotoxicity at 70.5 h: concentration not given beside the values. The note with it: HepG2 cells, read-out: Inhibition.

Regarding `O=C(Nc1ccc2c(c1)C(=O)NC2=O)c1ccc(Cl)s1`, the cytotoxicity at 70.5 h was -10.9%. Turning to `CC(C)(C)n1ncc2c(=O)n(CC(=O)NCc3ccco3)cnc21`, the cytotoxicity at 70.5 h was -11.6%. As for `CC(C)(C)n1ncc2c(=O)n(CC(=O)NCCc3ccccc3)cnc21`, the figure is -13.5%; as for `O=C(Nc1ccc(Br)cc1F)c1ccc(N2CCCCC2)nn1`, -3.25%.

As to `Cc1ccc(NC(=O)c2ccc(N3CCCCC3)nn2)c(Cl)c1`, the cytotoxicity at 70.5 h worked out at 3.33%. Consider `O=C(Nc1cc(C(F)(F)F)ccc1Cl)c1ccc(N2CCOCC2)nn1`, for which the cytotoxicity at 70.5 h was -0.689%.

As for `CSc1ccccc1NC(=O)c1ccc(N2CCOCC2)nn1`, the cytotoxicity at 70.5 h is -3.96%.

In the case of `CN1C(=O)c2cccc(NC(=O)c3ccc4c(c3)OCCO4)c2C1=O`, the cytotoxicity at 70.5 h is 21.1%. As for `Cc1cc(N2CCC3(CCC(=O)N(CCO)C3)CC2)nc(N(C)C)n1`, the figure is -3.81%; as for `Cc1noc(CC2CCN(C(=O)C(c3ccccc3C)N(C)C)CC2)n1` (centres undefined), -12.1%. In the case of `CN(Cc1ccon1)C(=O)C1CC(=O)N(Cc2cccnc2)C1` (centres undefined), the cytotoxicity at 70.5 h is -7.61%.

Turning to `COc1ccc(-c2cn(CCSc3ncn[nH]3)nn2)cn1`, the cytotoxicity at 70.5 h is -9.67%. As for `COCCC1(C(=O)O)CCCN(CC(=O)NCCc2ccccc2)C1` (centres undefined), the figure is 27.1%; as for `COC(=O)CCCn1ccnc1C(C)c1ccccc1` (centres undefined), -1.4%.

In the case of `CCC(Nc1nccc(C2CCCC2)n1)c1ccncc1` (centres undefined), the cytotoxicity at 70.5 h was 3.69%.

In the case of `Cc1noc(C)c1CN1C[C@@H](NS(=O)(=O)N(C)C)[C@H](C(C)C)C1`, the cytotoxicity at 70.5 h is -8.39%. As for `CN1CC(c2ccccc2)CC12CCN(C(=O)c1ccncc1)CC2` (centres undefined), the figure is -2.51%.

Regarding `CN(C)C(=O)CCCNc1ncc2c(n1)CCN2c1ccccc1`, the cytotoxicity at 70.5 h was -7.97%.

As to `O=C(Nc1cnc2n1CCCC2)C1CCCN1C1CCNCC1` (centres undefined), the cytotoxicity at 70.5 h is -15%. As for `CC(C)CCC1=NC2(CCN(C(=O)N3CCN(C)CC3)CC2)C(=O)N1`, the figure is 2.1%; as for `O=C(C1CCCC1)N1CCC(C2CCN(Cc3ccc(Cl)cc3)C2)CC1` (centres undefined), -2.34%; as for `Cc1cc(C(=O)N2CCC(c3nccn3Cc3ccccn3)CC2)no1`, -6.61%. As for `Cn1ncc(-c2cc(-c3cccc(O)c3)nc(N)c2C#N)c1C1CC1`, the figure is 37.1%; as for `N#Cc1cc2c(=O)n(CC(O)C(F)(F)F)ccc2[nH]c1=O` (centres undefined), 3.74%; as for `CCOc1ccc(CCCC(=O)N2CC[C@H](NC(C)=O)C2)cc1C`, -12.4%. As to `CC(NC(=O)C1CCN(C(C)C)CC1)c1nncn1C1CCCC1` (centres undefined), the cytotoxicity at 70.5 h was -4.33%. Regarding `CN(C)C(=O)c1nc(CN2CC(Cc3ccccc3)CC2=O)no1` (centres undefined), the cytotoxicity at 70.5 h is -2.6%. As for `COc1cccc(-c2noc3c2CN(c2ncnc4c2CCC4)CC3)c1`, the figure is -6.28%. In the case of `CC(C)N(Cc1nccn1C)C(=O)c1cc(Cl)c[nH]c1=O`, the cytotoxicity at 70.5 h was -6.81%. As for `CCNc1nc(C)c(C(=O)N2CCC(C(O)Cc3ccccc3)CC2)s1` (centres undefined), the figure is -14.6%; as for `Cc1ccnc(N2C[C@@H]3CC[C@H](C2)N(CC2CCC2)C3=O)n1`, 9.42%.

Regarding `COc1ncccc1C(=O)N(C)Cc1nc(-c2ccccn2)no1`, the cytotoxicity at 70.5 h was -8.07%. As for `CCc1ccc2nc(-c3cnn(C)c3)cc(C(=O)N3CCOCC3)c2c1`, the figure is -7.51%.

Take `CNc1nc(CN2C[C@@H](NC(C)=O)[C@H](c3ccc(C)o3)C2)cs1`: the cytotoxicity at 70.5 h was -16.5%.

On to `C[C@@H]1CN(C(=O)CCN2CCCC2)CC[C@@]1(O)C1CCOCC1`, for which the cytotoxicity at 70.5 h was -6.69%. The figure for `Cc1nc[nH]c1CN(Cc1ccccc1)Cc1nccs1` is -6.42%; for `CC(C)N1CCCC2(CCN(C(=O)CCCn3cccn3)C2)C1=O` (centres undefined) it is 6.53%. As for `CCOc1ccc(C(=O)N(CCOC)Cc2c(C)nn(CC)c2C)o1`, the figure is -6.36%. The figure for `COc1cc(CN2CCCC(Nc3cccc(F)c3)C2)cc(OC)c1O` (centres undefined) is -5.97%; for `CN(Cc1cc2n(n1)CCNC2)Cc1n[nH]c2c1CCC2` it is -10.9%. With `CC(=O)C1(c2ccccc2)CCN(C(=O)CC2CNCCO2)CC1` (centres undefined), the cytotoxicity at 70.5 h was -31.5%.

As for `Cc1ccc(-c2cc(CNC(=O)N3CCC(O)CC3)on2)cc1`, the cytotoxicity at 70.5 h turned out to be 0.512%.

In the case of `CC(C)n1ncc2cc(NC(=O)N3CCSCC3)cnc21`, the cytotoxicity at 70.5 h was -3.2%.

As to `COc1ccc(C(O)CNC(=O)NCc2nc(C)cs2)cc1` (centres undefined), the cytotoxicity at 70.5 h is -3.39%. The figure for `Cc1ccc(C(O)CNC(=O)NCc2csc(C)n2)cc1` (centres undefined) is -2.4%. The figure for `Cc1csc(N2CCN(C(=O)C(C(C)C)n3cncn3)CC2)n1` (centres undefined) is -1.51%; for `CCCC(=O)NC1CCN(c2ccccc2S(=O)(=O)CC)CC1` it is 17.6%. For `CCS(=O)(=O)c1ccccc1N1CCC(NC(=O)C(C)C)CC1`, the cytotoxicity at 70.5 h was 5.03%. As for `Cc1nn(C)c(C)c1C1CCCN1CC(=O)Nc1cc(C(C)C)no1` (centres undefined), the figure is -3.36%.

For `Cc1cc(NC(=O)CN2CCCC2c2c(C)nn(C)c2C)on1` (centres undefined), the cytotoxicity at 70.5 h is -2.37%. The figure for `CCc1nc(C2CCCN(C(=O)c3cccnc3O)C2)no1` (centres undefined) is -0.758%. For the molecule `O=C(NCC1CCS(=O)(=O)C1)N1CCN(c2cnccn2)CC1` (centres undefined), the cytotoxicity at 70.5 h came out at 3.28%. As for `CN1C(=O)CN(C(=O)c2ccc(=O)n(C)c2)c2ccccc21`, the figure is 1.56%; as for `Cc1csc(N2CCN(C(=O)C(C)n3cncn3)CC2)n1` (centres undefined), 0.112%. As for `CC(C)C(C(=O)N1CCCN(c2nccs2)CC1)n1cncn1` (centres undefined), the figure is 1.24%. As for `Cc1cnn(CC2CN(Cc3nc(C)c(C)o3)CCO2)c1` (centres undefined), the figure is 1.07%; as for `CCn1ccnc1CN1CCN(C(C)C(=O)N2CCCCCC2)CC1` (centres undefined), -1.03%; as for `Cc1nc(CN(C)C2CCN(CC3CCOCC3)C2)no1` (centres undefined), -2.15%. For `CC(C(=O)N1CCCCCC1)N1CCN(Cc2nccn2C)CC1` (centres undefined), the cytotoxicity at 70.5 h was -4.84%. As for `Cc1nc(CN(C)C2CCN(CC3CCC3)C2)no1` (centres undefined), the figure is -4.98%.

`O=C(CCn1nc(-c2cccs2)oc1=O)Nc1cccc(F)c1`: the cytotoxicity at 70.5 h was -6.28%. The figure for `CCOc1ncccc1CNC(=O)NC1CCOc2ccccc21` (centres undefined) is -4.63%; for `Cc1ccc(-n2nnc(C(=O)NC(C)C)c2C2CC2)cc1` it is -4.09%; for `O=C(C1CCCCC1)N1CCN(Cc2nc(-c3ccco3)no2)CC1` it is -5.01%. The figure for `CC(C)c1ncncc1C(=O)N1CCN(Cc2cccnc2)CC1` is -6.82%; for `CCn1ccnc1CN1CCN(C(C)C(=O)N2CCCC2)CC1` (centres undefined) it is -3.5%. As for `Cc1cnn(CC2CN(Cc3nnc(-c4ccccc4)o3)CCO2)c1` (centres undefined), the figure is -8.48%; as for `COC(=O)CCNC(=O)c1nnn(-c2ccc(C)cc2)c1C1CC1`, 16.4%. As for `Cc1nc2cc(C(=O)N3CCCC(n4ccnc4)C3)ccc2n1C` (centres undefined), the cytotoxicity at 70.5 h is -2.44%. The figure for `CC(=O)Nc1nc(CN2CCn3c(nnc3C(C)C)C2)cs1` is -4.17%; for `O=C(c1cc2c(s1)CCOC2)N1CCCC1Cn1cccn1` (centres undefined) it is -8.49%; for `CS(=O)(=O)NC(=O)c1nnn(-c2cccc(F)c2)c1C1CC1` it is -7.64%. As for `COc1cccc(C(=O)NS(=O)(=O)c2cccc(C#N)c2)c1`, the figure is -6.99%; as for `Cc1ccccc1C1(C(=O)N2CCCC(n3cncn3)C2)CC1` (centres undefined), -10.8%; as for `Cc1cnn(CC2CN(Cc3nc(C4CC4)no3)CCO2)c1` (centres undefined), -6.98%. As for `Cc1cnn(CC2CN(Cc3nnc(C(C)C)o3)CCO2)c1` (centres undefined), the figure is -6.07%; as for `CCc1nnc(CN2CCOC(Cn3cc(C)cn3)C2)o1` (centres undefined), -6.6%; as for `COc1cc(C2(C(=O)N3CCCC(n4cncn4)C3)CC2)ccc1C` (centres undefined), -7.1%. Consider `O=C(c1ccc2c(c1)COC2)N1CCCC(n2cncn2)C1` (centres undefined), for which the cytotoxicity at 70.5 h was -4.03%. As for `CC(NC(=O)CCCC(=O)c1cccs1)c1nnc2n1CCC2` (centres undefined), the figure is -9.34%; as for `O=C(c1cc(C2CC2)[nH]n1)N1CCN(Cc2ccc3c(c2)OCO3)CC1`, -2.82%; as for `O=C(NCCNc1ncccn1)C1CCN(C(=O)c2ccoc2)CC1`, -3.53%.

Turning to `CCCC(=O)N1CCC(C(=O)NCCNc2ncccn2)CC1`, the cytotoxicity at 70.5 h is 0.692%. As for `CC(NC(=O)CCc1cccs1)c1nnc2n1CCCCC2` (centres undefined), the figure is 8.51%; as for `Cc1nnc2n1CCN(Cc1csc(-c3ccsc3)n1)C2`, -5.37%; as for `Cc1ncc2c(n1)CN(Cc1nc(-c3cccs3)no1)CC2`, 9.81%. The figure for `Cc1nn(C)c(C)c1C1CCCN1Cc1nc(-c2ccccn2)no1` (centres undefined) is -5.05%; for `O=C(CN1CC(n2cccn2)C1)NCCc1ccc(F)cc1` it is -1.33%. As for `CN1CCOC(CN(C(=O)CCCn2cccn2)c2nccs2)C1` (centres undefined), the figure is -1.25%.

In the case of `CN1CCOC(CN(C(=O)CCc2ccco2)c2nccs2)C1` (centres undefined), the cytotoxicity at 70.5 h was 10.3%. The figure for `CC(C)c1noc(CN2CCN(C(=O)c3ccncc3F)CC2)n1` is -9.24%. The figure for `Cc1ccc(CC(=O)N(CC2CN(C)CCO2)c2nccs2)cn1` (centres undefined) is 11.5%.

Regarding `Cc1csc(N2CCN(CC(=O)Nc3cccnc3)CC2C)n1` (centres undefined), the cytotoxicity at 70.5 h came to 2.59%.

As to `Cc1cc(C)n(CC2CCCN2CCCc2nc3ccccc3o2)n1` (centres undefined), the cytotoxicity at 70.5 h is -1.67%. As for `CC(c1nc(C2CC2)no1)N1CCN(CCCN2CCCC2=O)CC1` (centres undefined), the cytotoxicity at 70.5 h turned out to be 3.52%. As for `Cc1nnc(CN(C)C2CCN(Cc3nnc(C4CCC4)o3)C2)n1C` (centres undefined), the figure is 1.37%; as for `Cc1nc(CN2CCC(N(C)Cc3nnc(C4CC4)n3C)C2)oc1C` (centres undefined), 10.4%; as for `Cc1ccc(NC2CCN(C(=O)C(C)n3cncn3)CC2)nn1` (centres undefined), -0.916%. For `COc1cccc(CNCc2ccnc(N3CCOCC3)c2)c1OC`, the cytotoxicity at 70.5 h was -4.37%.
